Source: patent publication US20170049678A1, “COMBINATION OF A HYALURONIC ACID AND OF A SULPHATED POLYSACCHARIDE” (PIERRE FABRE DERMO-COSMETIQUE, priority 2014, published 2017)

Tested on: Normal human fibroblasts (NHF)
Assay: Fibroblast proliferation by BrdU incorporation
Format: cell-based
Settings: single agent; Ascophyscient 10 and 100 μg/ml, sodium hyaluronate 100 and 1000 μg/ml; 44 hours, DMEM with 3% FCS; FIG. 2
Protocol: The technique used is that of incorporation of a nucleotide, 5-bromo-2′-deoxyuridine (BrdU), a thymidine analog, in the DNA of S-phase cells, at 37° C. This technique makes it possible to quantify cells of which the advance in the cell cycle is characteristic of a proliferating cell (S-phase or DNA synthesis phase). Normal human fibroblasts (NHF), isolated from surgical waste skin, are usually cultivated in Dulbecco's modified Eagle's medium (DMEM) with 10% fetal calf serum (FCS). In our experimental conditions, dilutions of the products to be tested are prepared in DMEM with 3% FCS. The cells are first deprived of FCS for 24 hours to stop cell multiplication before incubating them in the presence of the molecules to be evaluated for 44 hours at 37° C., in a 5% CO2 atmosphere. BrdU incorporation, proportional to cell proliferation rate, is evaluated by an anti-BrdU antibody system (Roche Applied Science). The corresponding absorbance (OD) is measured at 450 nm. This datum is thus proportional to cell proliferation rate. […] Analysis of the Results: • expressed as OD (proportional to BrdU incorporation and thus to cell proliferation rate) • expressed as percent stimulation: [formula] • expressed as standard error of the mean: SEM=standard deviation (SD)/√n Statistical analyses using unpaired bilateral Student's t-test were carried out on the raw OD values. […]

With sodium hyaluronate the “fibroblast proliferation (BrdU incorporation, OD 450 nm)” value was “moderate effect on fibroblast proliferation”.
